Measurements reported in patent publication US20250221998A1, “DISCOVERY OF COVALENT EGFR INHIBITOR THROUGH CYSTEINE 775” (Dana-Farber Cancer Institute, Inc., priority 2022, published 2025).

Key:
[1] = target: EGFR L858R/C797S Ba/F3 cells (Homo sapiens, UniProt P00533, C797S/L858R, cells depend on it); assay: Ba/F3 cell proliferation (Cell Titer Glo), EGFR L858R/C797S; type: cell-based, murine; conditions: 72 hours exposure, read-out: L858R/C797S (μM), inhibitory activity against EGFR mutants
Text: (§1) The EGFR mutant L858R Ba/F3 cells have been previously described (Zhou, W., et al. Nature 462, 2009, 1070-1074). The EGFR C797S and C775S mutations were introduced via site directed mutagenesis using the Quick Change Site-Directed Mutagenesis kit into a vector containing EGFR L858R mutation (Stratagene; La Jolla, CA) according to the manufacturer's instructions. All constructs were confirmed by DNA sequencing. The constructs were then shuttled into the retroviral vector JP1540 by either using the Cre-recombination system (Agilent Technologies, Santa Clara, CA) or the In-fusion HD Cloning kit (Takara Bio USA, Inc.; Mountain view, CA). Ba/F3 cells were then infected with retrovirus per standard protocols, as described previously (Zhou, et al, Nature 2009). Stable clones were obtained by selection in puromycin (2 ug/ml). All BaF/3 mutant cells were maintained in RPMI 1640 (Cellgro; Mediatech Inc., Herndon, CA) supplemented with 10% FBS, 100 units/mL penicillin, 100 units/mL streptomycin.
(§2) Growth and inhibition of growth was assessed by the Cell Titer Glo assay (Promega, Madison, WI) and was performed according to the manufacturer's instructions. The Cell Titer Glo assay is a luminescence-based method used to determine the number of viable cells based on quantitation of the ATP present, which is directly proportional to the amount of metabolically active cells present. Ba/F3 cells of different EGFR genotypes were exposed to compounds for 72 hours and the number of cells used per experiment was determined empirically as has been previously established (Zhou, et al., Nature 2009). All experimental points were set up in triplicates in 384-well plates. […] The curves were fitted using a non-linear regression model with a sigmoidal dose response.
(§3) For inhibitory activity against EGFR mutants, the following designations are used: ≤0·25 μM=A, 0·25 μM˜0.5 μM=B, 0.5 μM˜2.5 μM=C, ≥2.5 μM=D.

[2] = target: EGFR mutant L858R Ba/F3 cells (Homo sapiens, UniProt P00533, L858R, cells depend on it); assay: Ba/F3 cell proliferation (Cell Titer Glo), EGFR L858R; type: cell-based, murine; conditions: 72 hours exposure, read-out: L858R BaF3 (μM), inhibitory activity against EGFR mutants
Text: as §1, §2, §3

EGFR mutant L858R Ba/F3 cells, sequence (P00533 whole entry L858R): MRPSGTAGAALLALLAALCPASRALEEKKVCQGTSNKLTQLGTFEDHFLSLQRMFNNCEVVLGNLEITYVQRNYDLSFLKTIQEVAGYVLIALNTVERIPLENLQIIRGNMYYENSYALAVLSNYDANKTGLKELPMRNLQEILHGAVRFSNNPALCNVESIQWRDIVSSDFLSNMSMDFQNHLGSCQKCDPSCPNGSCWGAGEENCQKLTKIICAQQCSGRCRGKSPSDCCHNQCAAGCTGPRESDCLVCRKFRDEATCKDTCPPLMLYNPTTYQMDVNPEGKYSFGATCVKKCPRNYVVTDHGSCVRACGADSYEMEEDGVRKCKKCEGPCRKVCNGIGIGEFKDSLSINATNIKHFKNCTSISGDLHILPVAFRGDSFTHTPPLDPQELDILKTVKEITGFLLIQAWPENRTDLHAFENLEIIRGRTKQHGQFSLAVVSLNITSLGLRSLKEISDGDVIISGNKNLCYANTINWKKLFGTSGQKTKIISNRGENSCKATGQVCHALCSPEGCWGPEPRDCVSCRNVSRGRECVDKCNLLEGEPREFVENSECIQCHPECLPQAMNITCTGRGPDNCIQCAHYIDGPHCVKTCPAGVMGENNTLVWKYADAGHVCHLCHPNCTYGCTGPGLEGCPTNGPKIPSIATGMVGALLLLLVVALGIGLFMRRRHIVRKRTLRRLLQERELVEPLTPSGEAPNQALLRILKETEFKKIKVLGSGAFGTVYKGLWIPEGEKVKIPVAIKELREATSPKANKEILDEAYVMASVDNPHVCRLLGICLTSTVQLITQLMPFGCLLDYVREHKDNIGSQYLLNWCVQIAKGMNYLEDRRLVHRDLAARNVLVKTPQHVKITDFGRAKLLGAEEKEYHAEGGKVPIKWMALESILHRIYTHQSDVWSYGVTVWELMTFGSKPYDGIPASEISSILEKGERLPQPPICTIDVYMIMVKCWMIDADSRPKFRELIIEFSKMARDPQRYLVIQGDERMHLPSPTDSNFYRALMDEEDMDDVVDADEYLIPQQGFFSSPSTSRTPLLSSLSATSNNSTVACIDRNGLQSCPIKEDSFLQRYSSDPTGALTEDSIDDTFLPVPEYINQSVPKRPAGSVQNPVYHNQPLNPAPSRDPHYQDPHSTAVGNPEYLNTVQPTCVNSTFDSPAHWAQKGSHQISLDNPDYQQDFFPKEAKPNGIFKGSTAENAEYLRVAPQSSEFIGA
EGFR L858R/C797S Ba/F3 cells, sequence (P00533 whole entry C797S/L858R, the tested form may be a part): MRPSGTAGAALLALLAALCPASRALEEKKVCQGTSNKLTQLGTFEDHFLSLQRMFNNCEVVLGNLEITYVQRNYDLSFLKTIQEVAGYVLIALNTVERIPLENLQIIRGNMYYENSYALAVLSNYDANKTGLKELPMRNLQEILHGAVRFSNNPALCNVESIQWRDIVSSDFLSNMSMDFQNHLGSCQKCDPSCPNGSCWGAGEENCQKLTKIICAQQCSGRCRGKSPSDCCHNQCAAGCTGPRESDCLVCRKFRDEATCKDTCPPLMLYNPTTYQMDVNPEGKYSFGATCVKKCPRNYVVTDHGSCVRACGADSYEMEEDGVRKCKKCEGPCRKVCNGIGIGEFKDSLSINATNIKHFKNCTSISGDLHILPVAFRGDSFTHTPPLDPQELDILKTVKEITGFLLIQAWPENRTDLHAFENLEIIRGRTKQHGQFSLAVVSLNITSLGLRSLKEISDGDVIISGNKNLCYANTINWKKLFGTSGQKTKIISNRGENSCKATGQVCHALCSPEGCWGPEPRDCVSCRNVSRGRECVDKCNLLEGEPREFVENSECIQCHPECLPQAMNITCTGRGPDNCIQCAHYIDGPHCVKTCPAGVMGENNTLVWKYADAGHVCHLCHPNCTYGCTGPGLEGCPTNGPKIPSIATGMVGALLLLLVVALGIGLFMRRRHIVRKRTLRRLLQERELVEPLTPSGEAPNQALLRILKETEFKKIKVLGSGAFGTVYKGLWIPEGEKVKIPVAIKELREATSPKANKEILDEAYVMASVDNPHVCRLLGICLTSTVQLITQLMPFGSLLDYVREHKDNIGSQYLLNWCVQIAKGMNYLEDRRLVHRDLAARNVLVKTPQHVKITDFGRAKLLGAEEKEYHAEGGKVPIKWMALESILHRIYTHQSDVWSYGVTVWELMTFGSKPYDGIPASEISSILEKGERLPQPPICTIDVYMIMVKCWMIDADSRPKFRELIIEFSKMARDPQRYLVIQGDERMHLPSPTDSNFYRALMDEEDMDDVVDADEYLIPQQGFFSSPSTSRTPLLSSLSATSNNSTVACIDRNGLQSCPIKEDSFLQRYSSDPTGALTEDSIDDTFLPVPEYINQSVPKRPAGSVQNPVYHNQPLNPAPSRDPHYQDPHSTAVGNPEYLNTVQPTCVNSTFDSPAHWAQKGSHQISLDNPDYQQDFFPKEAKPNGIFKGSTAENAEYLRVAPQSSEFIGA

A GI50 [1] of 0.25 to 0.5 µM and a GI50 [2] of at most 0.25 µM were found for `C=CC(=O)N1CCN(c2cc3cnc(N)nc3n(-c3ccc(OC4COC4)cc3)c2=O)c2cccc(C)c21` [Compound 093, 2-amino-6-(5-methyl-4-prop-2-enoyl-2,3-dihydroquinoxalin-1-yl)-8-[4-(oxetan-3-yloxy)phenyl]pyrido[2,3-d]pyrimidin-7-one] in this work.

A GI50 [1] of at most 0.25 µM and a GI50 [2] of at most 0.25 µM were found for `C=CC(=O)N1CCN(c2cc3cnc(N)nc3n(-c3ccc(OCCN(C)C)c(F)c3)c2=O)c2cccc(C)c21` [Compound 104, 2-amino-8-[4-[2-(dimethylamino)ethoxy]-3-fluoro-phenyl]-6-(5-methyl-4-prop-2-enoyl-2,3-dihydroquinoxalin-1-yl)pyrido[2,3-d]pyrimidin-7-one] in this work.

A GI50 [1] of 0.25 to 0.5 µM and a GI50 [2] of at most 0.25 µM were found for `C=CC(=O)N1CCN(c2cc3cnc(Nc4cnn(CCO)c4)nc3n(C)c2=O)c2cccc(OC)c21` [Compound 020, 2-[[1-(2-hydroxyethyl)pyrazol-4-yl]amino]-6-(5-methoxy-4-prop-2-enoyl-2,3-dihydroquinoxalin-1-yl)-8-methyl-pyrido[2,3-d]pyrimidin-7-one] in this work.

A GI50 [1] of at most 0.25 µM and a GI50 [2] of at most 0.25 µM were found for `C=CC(=O)N1CCN(c2cc3cnc(NC4CC4)nc3n(C3CCOCC3)c2=O)c2cccc(C)c21` [Compound 097, 2-(cyclopropylamino)-6-(5-methyl-4-prop-2-enoyl-2,3-dihydroquinoxalin-1-yl)-8-tetrahydropyran-4-yl-pyrido[2,3-d]pyrimidin-7-one] in this work.

A GI50 [1] of at most 0.25 µM and a GI50 [2] of at most 0.25 µM were found for `C=CC(=O)N1CCN(c2cc3cnc(Nc4ccc(OCCN(C)C)cc4)nc3n(C3CC(F)(F)C3)c2=O)c2cccc(C)c21` [Compound 055, 8-(3,3-difluorocyclobutyl)-2-[4-[2-(dimethylamino)ethoxy]anilino]-6-(5-methyl-4-prop-2-enoyl-2,3-dihydroquinoxalin-1-yl)pyrido[2,3-d]pyrimidin-7-one] in this work.

A GI50 [1] of at most 0.25 µM and a GI50 [2] of at most 0.25 µM were found for `C=CC(=O)N1CCN(c2cc3cnc(Nc4ccc(OCCN(C)C)cc4)nc3n([C@H]3C[C@H](O)C3)c2=O)c2cccc(C)c21` [Compound 044] in this work.

A GI50 [1] of at most 0.25 µM and a GI50 [2] of at most 0.25 µM were found for `C=CC(=O)N1CCN(c2cc3cnc(Nc4ccc(OCCN(C)C)cc4)nc3n(C3CC(O)C3)c2=O)c2cccc(OC)c21` (stereo not shown) [Compound 077] in this work.

A GI50 [1] of at most 0.25 µM and a GI50 [2] of at most 0.25 µM were found for `C=CC(=O)N1CCN(c2cc3cnc(Nc4ccc(OCCN(C)C)cc4)nc3n(C)c2=O)c2cccc(OC)c21` [Compound 074] in this work.

A GI50 [1] of at most 0.25 µM and a GI50 [2] of at most 0.25 µM were found for `C=CC(=O)N1CCN(c2cc3cnc(Nc4ccc(N5CCN(C)CC5)cc4)nc3n(C3CC(O)C3)c2=O)c2cccc(C)c21` (stereo not shown) [Compound 046, 8-(3-hydroxycyclobutyl)-2-[4-(4-methylpiperazin-1-yl)anilino]-6-(5-methyl-4-prop-2-enoyl-2,3-dihydroquinoxalin-1-yl)pyrido[2,3-d]pyrimidin-7-one] in this work.

A GI50 [1] of at most 0.25 µM and a GI50 [2] of at most 0.25 µM were found for `C=CC(=O)N1CCN(c2cc3cnc(NC4CC4)nc3n(C3CCN(C)CC3)c2=O)c2cccc(C)c21` [Compound 105, 2-(cyclopropylamino)-8-(1-methyl-4-piperidyl)-6-(5-methyl-4-prop-2-enoyl-2,3-dihydroquinoxalin-1-yl)pyrido[2,3-d]pyrimidin-7-one] in this work.

A GI50 [1] of at most 0.25 µM and a GI50 [2] of at most 0.25 µM were found for `C=CC(=O)N1CCN(c2cc3cnc(Nc4ccc(OCCN5CCCC5)cc4)nc3n(C)c2=O)c2cccc(C)c21` [Compound 032] in this work.

A GI50 [1] of at most 0.25 µM and a GI50 [2] of at most 0.25 µM were found for `C=CC(=O)N1CCN(c2cc3cnc(Nc4cc5n(c4)CCN(C)C5=O)nc3n(C)c2=O)c2cccc(C)c21` [Compound 073, 8-methyl-2-[(2-methyl-1-oxo-3,4-dihydropyrrolo[1,2-a]pyrazin-7-yl)amino]-6-(5-methyl-4-prop-2-enoyl-2,3-dihydroquinoxalin-1-yl)pyrido[2,3-d]pyrimidin-7-one] in this work.

A GI50 [1] of 0.5 to 2.5 µM and a GI50 [2] of 0.25 to 0.5 µM were found for `C=CC(=O)N1CCN(c2cc3cnc(Nc4ccc(OCCN(C)C)cc4)nc3n(C3COC3)c2=O)c2cccc(C)c21` [Compound 060, 2-[4-[2-(dimethylamino)ethoxy]anilino]-6-(5-methyl-4-prop-2-enoyl-2,3-dihydroquinoxalin-1-yl)-8-(oxetan-3-yl)pyrido[2,3-d]pyrimidin-7-one] in this work.

A GI50 [1] of at most 0.25 µM and a GI50 [2] of at most 0.25 µM were found for `C=CC(=O)N1CCN(c2cc3cnc(Nc4ccc(OCCN(C)C)cc4)nc3n(C3CC(OC)C3)c2=O)c2cccc(C)c21` (stereo not shown) [Compound 071, 2-[4-[2-(dimethylamino)ethoxy]anilino]-8-(3-methoxycyclobutyl)-6-(5-methyl-4-prop-2-enoyl-2,3-dihydroquinoxalin-1-yl)pyrido[2,3-d]pyrimidin-7-one] in this work.

A GI50 [1] of at most 0.25 µM and a GI50 [2] of at most 0.25 µM were found for `C=CC(=O)N1CCN(c2cc3cnc(Nc4ccc(OCCN(C)C)cc4)nc3n(C3CC(O)C3)c2=O)c2cccc(C)c21` (stereo not shown) [Compound 042, 2-[4-[2-(dimethylamino)ethoxy]anilino]-8-(3-hydroxycyclobutyl)-6-(5-methyl-4-prop-2-enoyl-2,3-dihydroquinoxalin-1-yl)pyrido[2,3-d]pyrimidin-7-one] in this work.

A GI50 [1] of at most 0.25 µM and a GI50 [2] of at most 0.25 µM were found for `C=CC(=O)N1CCN(c2cc3cnc(Nc4ccc(N5CCN(C)CC5)cc4)nc3n(C)c2=O)c2cccc(N)c21` [Compound 065, 6-(5-amino-4-prop-2-enoyl-2,3-dihydroquinoxalin-1-yl)-8-methyl-2-[4-(4-methylpiperazin-1-yl)anilino]pyrido[2,3-d]pyrimidin-7-one] in this work.

A GI50 [1] of at most 0.25 µM and a GI50 [2] of at most 0.25 µM were found for `C=CC(=O)N1CCN(c2cc3cnc(Nc4ccc(OCCN(C)C)cc4)nc3n([C@H]3C[C@@H](O)C3)c2=O)c2cccc(C)c21` [Compound 043] in this work.

A GI50 [1] of 0.5 to 2.5 µM and a GI50 [2] of 0.25 to 0.5 µM were found for `C=CC(=O)N1CCN(c2cc3cnc(N)nc3n(-c3cccc(O)c3)c2=O)c2cccc(C)c21` [Compound 098, 2-amino-8-(3-hydroxyphenyl)-6-(5-methyl-4-prop-2-enoyl-2,3-dihydroquinoxalin-1-yl)pyrido[2,3-d]pyrimidin-7-one] in this work.

A GI50 [1] of at most 0.25 µM and a GI50 [2] of at most 0.25 µM were found for `C=CC(=O)N1CCN(c2cc3cnc(NC4CC4)nc3n(-c3ccc(N(C)CCOC)cc3)c2=O)c2cccc(C)c21` [Compound 100, 2-(cyclopropylamino)-8-[4-[2-methoxyethyl(methyl)amino]phenyl]-6-(5-methyl-4-prop-2-enoyl-2,3-dihydroquinoxalin-1-yl)pyrido[2,3-d]pyrimidin-7-one] in this work.

A GI50 [1] of 0.25 to 0.5 µM and a GI50 [2] of at most 0.25 µM were found for `C=CC(=O)N1CCN(c2cc3cnc(NC4CC4)nc3n(CC3CCOC3)c2=O)c2cccc(C)c21` (stereo not shown) [Compound 106, 2-(cyclopropylamino)-6-(5-methyl-4-prop-2-enoyl-2,3-dihydroquinoxalin-1-yl)-8-(tetrahydrofuran-3-ylmethyl)pyrido[2,3-d]pyrimidin-7-one] in this work.

A GI50 [1] of at most 0.25 µM and a GI50 [2] of at most 0.25 µM were found for `C=CC(=O)N1CCN(c2cc3cnc(NC)nc3n(-c3ccc(OCCN(C)C)cc3)c2=O)c2cccc(C)c21` [Compound 081, 8-[4-[2-(dimethylamino)ethoxy]phenyl]-2-(methylamino)-6-(5-methyl-4-prop-2-enoyl-2,3-dihydroquinoxalin-1-yl)pyrido[2,3-d]pyrimidin-7-one] in this work.

A GI50 [1] of at most 0.25 µM and a GI50 [2] of at most 0.25 µM were found for `C=CC(=O)N1CCN(c2cc3cnc(Nc4ccc(N5CCN(C)CC5)nc4)nc3n(C)c2=O)c2cccc(C)c21` [Compound 031] in this work.

A GI50 [1] of at least 2.5 µM and a GI50 [2] of at least 2.5 µM were found for `C=CC(=O)NC1CCCN(c2cc3cnc(Nc4cnn(CCO)c4)nc3n(C)c2=O)C1` (stereo not shown) [Compound 015, N-[1-[2-[[1-(2-hydroxyethyl)pyrazol-4-yl]amino]-8-methyl-7-oxo-pyrido[2,3-d]pyrimidin-6-yl]-3-piperidyl]prop-2-enamide] in this work.

A GI50 [1] of at least 2.5 µM and a GI50 [2] of at least 2.5 µM were found for `C=CC(=O)N1CCN(c2cc3cnc(Nc4ccc(N5CCN(C)CC5)cc4)nc3n(C)c2=O)C(c2ccccc2)C1` (stereo not shown) [Compound 011, 8-methyl-2-[4-(4-methylpiperazin-1-yl)anilino]-6-(2-phenyl-4-prop-2-enoyl-piperazin-1-yl)pyrido[2,3-d]pyrimidin-7-one] in this work.

A GI50 [1] of at most 0.25 µM and a GI50 [2] of at most 0.25 µM were found for `C=CC(=O)N1CCN(c2cc3cnc(NC4CCC4)nc3n(-c3ccc(N(C)CCN(C)C)cc3)c2=O)c2cccc(C)c21` [Compound 102, 2-(cyclobutylamino)-8-[4-[2-(dimethylamino)ethyl-methyl-amino]phenyl]-6-(5-methyl-4-prop-2-enoyl-2,3-dihydroquinoxalin-1-yl)pyrido[2,3-d]pyrimidin-7-one] in this work.

A GI50 [1] of 0.25 to 0.5 µM and a GI50 [2] of at most 0.25 µM were found for `C=CC(=O)N1CCN(c2cc3cnc(N)nc3n(-c3cccc(OC)c3)c2=O)c2cccc(C)c21` [Compound 090] in this work.
